Literature values in US20040241258A1, “Insect repellent for humans and animals” (priority 2003, published 2004).

Conditions: in vivo

time remaining in the blood stream after use: 30 days
SMILES: CCN(CC)C(=O)c1cccc(C)c1 [DEET, N, N-diethyl-meta-toulamide]
